In patent US6720139B1, “Genes identified as required for proliferation in Escherichia coli” (priority 1999, dated 2004):
Values after ≈ are worked out from the molar mass of the structure shown. Read-outs that look alike come from different tables or passages of the source. Positions of bridges follow the written chain, without caps; N, C: chain ends. Non-standard residues stand in square brackets, D forms with d. Residues, ends and D or L forms follow the SMILES beside them. *: point of attachment. Ileψ(thiazoline)Cys = CC[C@H](C)[C@H](N)C1=N[C@H](C(=O)*)CS1; dOrn = NCCC[C@@H](N)C(=O)O

How the values were obtained:
[1] = test system: E. coli cells expressing antisense RNA to rplL, rplJ, rplW or to comparison genes (elaD, visC, yohH, atpB/E); experiment: Antibiotic sensitivity of cells expressing antisense RNA (Example 9); type: cell-based; settings: for sensitivity to erythromycin: initial experiments
Source text: The effectiveness of the above cell based assay was validated using constructs expressing antisense RNA to E. coli genes rplL, rplJ, and rplW encoding ribosomal proteins L7/L12, L10 and L23 respectively. These proteins are part of the protein synthesis apparatus of the cell and as such are required for proliferation. These constructs were used to test the effect of antisense expression on cell sensitivity to antibiotics known to bind to the ribosome and thereby inhibit protein synthesis. Constructs expressing antisense RNA to several other genes (elaD, visC, yohH, and aptE/B), the products of which are not involved in protein synthesis were used for comparison.
First expression vectors containing antisense constructs to either rplW or to elaD were introduced into separate E. coli cell populations. Vector introduction is a technique well known to those of ordinary skill in the art. The expression vectors of this example contain IPTG inducible promoters that drive the expression of the antisense RNA in the presence of the inducer. However, those skilled in the art will appreciate that other inducible promoters may also be used. Suitable expression vectors are also well known in the art. The E. coli antisense clones encoding ribosomal proteins L7/L12, L10 and L23 were used to test the effect of antisense expression on cell sensitivity to the antibiotics known to bind to these proteins. […]
Cells were pretreated with the selected concentration of IPTG and then used to test the sensitivity of cell populations to tetracycline, erythromycin and other protein synthesis inhibitors. […] Cells were grown to log phase and then diluted into media alone or media containing IPTG at concentrations which give 20% and 50% growth inhibition as determined by IPTG dose response curves. […] The 96 well plates were incubated at 37° C. and the OD600 was read by a plate reader every 5 minutes for up to 15 hours. For each IPTG concentration and the no IPTG control, tetracycline dose response curves were determined when the control (absence of tetracycline) reached 0.1 OD600.

[2] = test system: bacterial strain engineered for expression of an antisense against rplL and rplJ (50S ribosomal subunit proteins); experiment: microbe, parasite or virus in culture; type: cell-based, E. coli
Description: A panel of test antibiotics known to act on different pathways is tested side by side with three to four wells being used to evaluate the effect of a test antibiotic on cell growth at each concentration. Equal volumes of test antibiotic and cells are added to the wells of a 384 well microtiter plate and mixed. Cells are prepared as described above using the media selected for assay development supplemented with the antibiotic required to maintain the antisense construct and are diluted 1:100 in identical media immediately prior to addition to the microtiter plate wells. For a control, cells are also added to several wells that contain the solvent used to dissolve the antibiotics but no antibiotic. Cell growth is monitored continuously by incubation at 37° C. in a microtiter plate reader monitoring the OD600 of the wells over an 18-hour period. […] A plot of percent inhibition against log[antibiotic concentration] allows extrapolation of an IC50 value for each antibiotic.
Two fold dilution series of the panel of test antibiotics used above are generated in each of these media. Several antibiotics are tested side by side with three to four wells being used to evaluate the effects of an antibiotic on cell growth at each concentration, in each media. Equal volumes of test antibiotic and cells are added to the wells of a 384 well microtiter plate and mixed. Cells are prepared as described above using the media selected for use in the assay supplemented with the antibiotic required to maintain the antisense construct. […] Immediately prior to addition to the microtiter plate wells, the cultures are adjusted to an appropriate OD600 (typically 0.002) by dilution into warm (37° C.) sterile media supplemented with identical concentrations of the inducer and antibiotic used to maintain the antisense construct. […] Cell growth is monitored continuously by incubation at 37° C. in a microtiter plate reader monitoring the OD600 of the wells over an 18-hour period. […]

E. coli = experiment: Inhibition of bacterial proliferation after IPTG induction of antisense clones (Example 1); type: cell-based, Escherichia coli; settings: 1 mM IPTG, liquid or solid medium
Description: To study the effects of transcriptional induction in liquid medium, growth curves were carried out by back diluting cultures 1:200 into fresh media with or without 1 mM IPTG and measuring the OD450 every 30 minutes (min). To study the effects of transcriptional induction on solid medium, 10^2, 10^3, 10^4, 10^5, 10^6, 10^7 and 10^8 fold dilutions of overnight cultures were prepared. Aliquots of from 0.5 to 3 μl of these dilutions were spotted on selective agar plates with or without 1 mM IPTG. After overnight incubation, the plates were compared to assess the sensitivity of the clones to IPTG.
Of the numerous clones tested, some clones were identified as, a containing sequence that inhibited E. coli growth after IPTG induction. Accordingly, the gene to which the inserted nucleic acid sequence corresponds, or a gene within the operon containing the inserted nucleic acid, may be required for proliferation in E. coli.

In the case of `CCn1cc(C(=O)O)c(=O)c2ccc(C)nc21` [Nalidixic acid], the “sensitivity to antibiotics which do not inhibit protein synthesis” value ([1]; clone expressing antisense to rplL and rplJ) is reported as “does not show increased sensitivity”.

With `CC[C@H](C)[C@H](N)C1=N[C@H](C(=O)N[C@@H](CC(C)C)C(=O)N[C@H](CCC(=O)O)C(=O)N[C@H](C(=O)N[C@H]2CCCCNC(=O)[C@H](CC(N)=O)NC(=O)[C@@H](CC(=O)O)NC(=O)[C@H](Cc3cnc[nH]3)NC(=O)[C@@H](Cc3ccccc3)NC(=O)[C@H]([C@@H](C)CC)NC(=O)[C@@H](CCCN)NC2=O)[C@@H](C)CC)CS1` [Bacitracin] ({Ileψ(thiazoline)Cys}-L[dE]IK[dOrn]I[dF]H[dD]N; lactam 4-C) the IC50 ([2]; read-out: IC50 (+IPTG)) was 4680 µg/mL (≈ 3290 µM) and the IC50 ([2]; read-out: IC50 (−IPTG)) was 4080 µg/mL (≈ 2870 µM).

Work on `CN(C)c1ccc(O)c2c1C[C@H]1C[C@H]3[C@H](N(C)C)C(O)=C(C(N)=O)C(=O)[C@@]3(O)C(O)=C1C2=O` [Minocycline] yielded an IC50 ([2]; read-out: IC50 (+IPTG)) of 0.0034 µg/mL (≈ 0.00743 µM).

With `CC[C@H]1OC(=O)[C@H](C)[C@@H](O[C@H]2C[C@@](C)(OC)[C@@H](O)[C@H](C)O2)[C@H](C)[C@@H](O[C@@H]2O[C@H](C)C[C@H](N(C)C)[C@H]2O)[C@](C)(O)C[C@@H](C)C(=O)[C@H](C)[C@@H](O)[C@]1(C)O` [Erythromycin] the sensitivity to erythromycin ([1]; clones expressing antisense to non-protein synthesis genes elaD, atpB/E and visC) was “do not” and the sensitivity to erythromycin ([1]; clones expressing antisense to protein synthesis genes (L7/L12 & L10, L7/L12 alone, L22, L18, rRNA, Elongation Factor G)) was “increased sensitivity”.

B1: EcXA046: identified clone corresponding to an intergenic sequence, fimE, fimA (nucleic acid)
DNA: TTTGTTGGCTTAATATTCTATTGTTATCTTTATTTATAGATGTTTATATTGCATGAGGTGGTTTTTGGAGAGAAGAATGAGGAAGATGCGTCGAGCCACAGAAACGTTAGCTTTACATATAGCGGAGGTGATGTGAATTTAATTTACAATAGAAATAATTTACATATCAAACAGTTAGATGCTTTTTGTCG
modifications: E. Coli
For B1, the “E. coli growth after IPTG induction of antisense expression” value (from here on “E. coli growth after IPTG induction”) (E. coli) was “reduction in cell growth”.

B2: EcXA006: identified antisense clone, gene pta (nucleic acid)
DNA: GCGCATACCCTGCAGCATCGGCCCGATGGAGATCAGGTCGGCAGAACGCTGTACCGCTTTGTAGGTGGTGTTACCGGTGNTCAGATCCGGGAAGATGAACACGGTAGCGCGACCTGCAACCGGAGAGTTCGGCGCTTTGGATTNCGCAACGTCAGCCATTACCGCAGCGTCGTACTGCAGCGGACCGGCGATCATCAGGTCA
modifications: E. Coli; misc_feature (1)...(202): n = A,T,C or G
notes: identified antisense clone, gene pta
With B2 the “E. coli growth after IPTG induction” value (E. coli) was “reduction in cell growth”.

B3: EcXA044: identified antisense clone, gene purB (nucleic acid)
DNA: TTAATTATTAAAATAGTGTAACGCGATTATGTGGTTATGGGGGTAAACATTAAATAAACCAGCGGGGAGGGGAGGTAAAGTGAAAAAATAAAAAGCGGATAATCTTAATAAGCAGGCCGGACAGCATCGCCATCCGGCACTGATACGAGGTTTATTTCAGCTCATCAACCATCG
modifications: E. Coli
notes: identified antisense clone, gene purB
In the case of B3, the “E. coli growth after IPTG induction” value (E. coli) is reported as “reduction in cell growth”.

B4: EcXA053: identified antisense clone, gene gor (nucleic acid, listed as Escherichia coli)
DNA 1: TGGAGAAAACGGGTGATTGATAAAGCAATCATCGTTCTAGGGGCGTTAATTGCGCTGCTGGAACTGATCCCGCTTTCTGCTTCAAGCTTCTGAACTGGATACGGAAACGTAATNAGGGCTAAAGAAGACACTACTCTTAGCCCTTTAACATTTAACGCATTGTCACGAACTCTTCTGCCGCCGTTGGGTGAATGGCGACGGGTATTGGTCGAAATCTTTTTTGGGTGGCCCCATCTTTAACGCCCACCCGCGAAACCCTGCAACATTTCGTC
DNA 2: TGGAGAAAACGGGTGATTGATAAAGCAATCATCGTTCTAGGGGCGTTAATTGCGCTGCTGGAACTGATCCGCTTTCTGCTTCAGCTTCTGAACTGATAGCGGAAACGTAATTAAGGGCTAAGAGCACACTACTCTTAGCCCTTTAACATTTAACGCATTGTCACGAACTCTTCTGCCGCCGTTGGGTGAATGGCGACGGTATTGTCGAAGTCTTTTTTGGTTGCCCCCATCTTCAGCGCCACCGCGAAGCCCTGCAACATTTCGTC
modifications: E. Coli; misc_feature (1)...(272): n = A,T,C or G
notes: identified antisense clone, gene gor
In the case of B4, the “E. coli growth after IPTG induction” value (E. coli) is reported as “reduction in cell growth”.
